Experimental data reported in US10815274B2, “Immunogenic WT-1 peptides and methods of use thereof” (Memorial Sloan Kettering Cancer Center, priority 2012, dated 2020).
Where a SMILES comes first, the peptide text is derived from it.

What was measured:
[1] = test system: WT1 peptide loaded autologous APC; experiment: Cr51 release assay, cytotoxic CTL response vs peptide loaded autologous APC; assay type: cell-based, human; conditions: 50:1 E:T
[2] = test system: PHA blasts; experiment: Cr51 release assay, cytotoxic CTL response vs PHA blasts from the same leukemic patient; assay type: cell-based, human; conditions: 50:1 E:T, PHA blasts from same patients as the leukemia
[3] = test system: WT1- autologous APC; experiment: Cr51 release assay, cytotoxic CTL response vs unmodified autologous APC; assay type: cell-based, human; conditions: 50:1 E:T
[4] = test system: WT1- allo APC with restricting HLA allele; experiment: Cr51 release assay, cytotoxic CTL response vs unloaded allogeneic APC sharing restricting HLA allele; assay type: cell-based, human; conditions: 50:1 E:T
[5] = test system: WT1+ leukemia; experiment: Cr51 release assay, cytotoxic CTL response vs WT1+ leukemia expressing restricting HLA allele; assay type: cell-based, human; conditions: 50:1 E:T
[6] = test system: WT1+ allo APC with restricting HLA allele loaded with WT1 peptide; experiment: Cr51 release assay, cytotoxic CTL response vs peptide loaded allogeneic APC sharing restricting HLA allele (HLA restriction); conditions: 50:1 E:T
[7] = test system: WT1- leukemia; experiment: Cr51 release assay, cytotoxic CTL response vs WT1- leukemia; assay type: cell-based, human; conditions: 50:1 E:T

Compound | Cytotoxic CTL response, % vs WT1 peptide loaded autologous APC ([1]; HLA allele A0201) | Cytotoxic CTL response, % vs WT1- autologous APC ([3]; HLA allele A0201) | Cytotoxic CTL response, % vs WT1- allo APC with restricting HLA allele ([4]; HLA allele A0201) | Cytotoxic CTL response, % vs WT1+ leukemia ([5]; HLA allele A0201) | Cytotoxic CTL response, % vs WT1+ allo APC with restricting HLA allele loaded with WT1 peptide ([6]; HLA allele A0201) | Cytotoxic CTL response, % vs WT1- leukemia ([7]; HLA allele A0201) | Cytotoxic CTL response, % vs WT1 peptide loaded autologous APC ([1]; HLA allele B4001) | Cytotoxic CTL response, % vs PHA blasts ([2]; HLA allele B4001) | Cytotoxic CTL response, % vs WT1- autologous APC ([3]; HLA allele B4001) | Cytotoxic CTL response, % vs WT1- allo APC with restricting HLA allele ([4]; HLA allele B4001) | Cytotoxic CTL response, % vs WT1+ Leukemia ([5]; HLA allele B4001) | Cytotoxic CTL response, % vs WT1+ leukemia ([5]; HLA allele B4001) | Cytotoxic CTL response, % vs WT1+ allo APC with restricting HLA allele loaded with WT1 peptide ([6]; HLA allele B4001) | Cytotoxic CTL response, % vs WT1- leukemia ([7]; HLA allele B4001) | further results
CSCC[C@H](NC(=O)[C@H](CCC(N)=O)NC(=O)[C@H](CCC(N)=O)NC(=O)[C@@H]1CCCN1C(=O)[C@H](CCC(=O)O)NC(=O)[C@H](CO)NC(=O)CNC(=O)[C@H](CO)NC(=O)[C@H](C)N)C(=O)O [SEQ ID NO: 151] (H-ASGSEPQQM-OH; N-terminus and C-terminus assumed) |  |  |  |  |  |  |  |  |  |  |  |  |  |  | Cytotoxic CTL response, % vs WT1 peptide loaded autologous APC ([1]; HLA allele B3501): 73%; Cytotoxic CTL response, % vs PHA blasts ([2]; HLA allele B3501): 9%; Cytotoxic CTL response, % vs WT1- autologous APC ([3]; HLA allele B3501): 5%; Cytotoxic CTL response, % vs WT1- allo APC with restricting HLA allele ([4]; HLA allele B3501): 3%; Cytotoxic CTL response, % vs WT1+ Leukemia ([5]; HLA allele B3501): 39%; Cytotoxic CTL response, % vs WT1+ leukemia ([5]; HLA allele B3501): 39%; Cytotoxic CTL response, % vs WT1+ allo APC with restricting HLA allele loaded with WT1 peptide ([6]; HLA allele B3501): 51%; Cytotoxic CTL response, % vs WT1- leukemia ([7]; HLA allele B3501): 5%
CC(C)C[C@H](NC(=O)[C@H](C)NC(=O)[C@H](CS)NC(=O)CNC(=O)CN)C(=O)N1CCC[C@H]1C(=O)N[C@H](C(=O)N[C@@H](CO)C(=O)NCC(=O)N[C@@H](C)C(=O)O)C(C)C [SEQ ID NO: 153] (H-GGCALPVSGA-OH; N-terminus and C-terminus assumed) | 32% | 8% | 3% | 47% | 25% | 3% |  |  |  |  |  |  |  |  | Cytotoxic CTL response, % vs PHA blasts ([2]; HLA allele A0201): 6%; Cytotoxic CTL response, % vs WT1+ Leukemia ([5]; HLA allele A0201): 47%
CC(C)C[C@H](NC(=O)[C@H](CO)NC(=O)CNC(=O)[C@H](Cc1ccc(O)cc1)NC(=O)[C@H](C)NC(=O)[C@@H](N)CO)C(=O)NCC(=O)NCC(=O)N1CCC[C@H]1C(=O)O [SEQ ID NO: 157] (H-SAYGSLGGP-OH; N-terminus and C-terminus assumed) | 51% | 2% | 5% | 0% | 31% | 0% | 41% | 3% | 2% | 8% | 68% | 68% | 24% | 3% | 
CC(C)C[C@H](NC(=O)[C@H](CC(N)=O)NC(=O)[C@H](CC(=O)O)NC(=O)[C@H](CO)NC(=O)[C@H](CO)NC(=O)[C@H](Cc1ccc(O)cc1)NC(=O)[C@@H]1CCCN1C(=O)[C@@H](NC(=O)[C@@H](N)CCCNC(=N)N)[C@@H](C)O)C(=O)O [SEQ ID NO: 169] (H-RTPYSSDNL-OH; N-terminus and C-terminus assumed) |  |  |  |  |  |  |  |  |  |  |  |  |  |  | Cytotoxic CTL response, % vs WT1 peptide loaded autologous APC ([1]; HLA allele B3503): 84%; Cytotoxic CTL response, % vs WT1 peptide loaded autologous APC ([1]; HLA allele C0401): 84%; Cytotoxic CTL response, % vs PHA blasts ([2]; HLA allele B3503): 1%; Cytotoxic CTL response, % vs PHA blasts ([2]; HLA allele C0401): 1%; Cytotoxic CTL response, % vs WT1- autologous APC ([3]; HLA allele B3503): 0%; Cytotoxic CTL response, % vs WT1- autologous APC ([3]; HLA allele C0401): 0%; Cytotoxic CTL response, % vs WT1- allo APC with restricting HLA allele ([4]; HLA allele B3503): 3%; Cytotoxic CTL response, % vs WT1+ Leukemia ([5]; HLA allele B3503): 48%; Cytotoxic CTL response, % vs WT1+ leukemia ([5]; HLA allele B3503): 48%; Cytotoxic CTL response, % vs WT1+ Leukemia ([5]; HLA allele C0401): 48%; Cytotoxic CTL response, % vs WT1+ leukemia ([5]; HLA allele C0401): 48%; Cytotoxic CTL response, % vs WT1+ allo APC with restricting HLA allele loaded with WT1 peptide ([6]; HLA allele B3503): 31%; Cytotoxic CTL response, % vs WT1- leukemia ([7]; HLA allele B3503): 4%; Cytotoxic CTL response, % vs WT1- leukemia ([7]; HLA allele C0401): 4%
CSCC[C@H](NC(=O)[C@@H](N)CC(N)=O)C(=O)N[C@@H](Cc1c[nH]cn1)C(=O)N[C@@H](CCC(N)=O)C(=O)N[C@@H](CCCNC(=N)N)C(=O)N[C@@H](CC(N)=O)C(=O)N[C@@H](Cc1c[nH]cn1)C(=O)N[C@H](C(=O)N[C@@H](CCCCN)C(=O)N[C@@H](CC(C)C)C(=O)O)[C@@H](C)O [SEQ ID NO: 183] (H-NMHQRNHTKL-OH; N-terminus and C-terminus assumed) | 40% | 2% | 4% | 0% | 32% | 0% | 31% | 1% | 0% | 1% | 72% | 72% | 26% | 3% | Cytotoxic CTL response, % vs WT1 peptide loaded autologous APC ([1]; HLA allele A2402): 47%; Cytotoxic CTL response, % vs WT1- autologous APC ([3]; HLA allele A2402): 19%; Cytotoxic CTL response, % vs WT1- allo APC with restricting HLA allele ([4]; HLA allele A2402): 13%; Cytotoxic CTL response, % vs WT1+ leukemia ([5]; HLA allele A2402): 0%; Cytotoxic CTL response, % vs WT1+ allo APC with restricting HLA allele loaded with WT1 peptide ([6]; HLA allele A2402): 27%; Cytotoxic CTL response, % vs WT1- leukemia ([7]; HLA allele A2402): 0%
